# Assay results taken from PMC11322497 (Frontiers in Pharmacology, 2024).
# Test system: high fat diet (HFD) rabbit model of metabolic-associated steatohepatitis (MASH)
# Test: HFD rabbit study, prolonged 4-week treatment (weeks 9–12): clinical and biochemical data
# Type: in vivo, New Zealand White rabbits
# Conditions: HFD rabbits, mean±SD, n=7
# Protocol: After 1 week (W) of RD, the animals (n = 44) were randomly assigned to the following groups (Table 1B): • Control rabbits continued to receive a RD for 12 weeks and were treated with vehicle for 5 days a week (days 1–5, p.o.) during the last 4 weeks before culling (RD + 4W Veh group); • Rabbits received a HFD for 8 weeks and were culled (HFD 8W group); • Rabbits received a HFD for 12 weeks and were treated with vehicle for 5 days a week (days 1–5, p.o.) during the last 4 weeks before culling (HFD+4W Veh group); • Rabbits received a HFD for 12 weeks and were treated with GB1211 (0.3 mg/kg) for 5 days a week (days 1–5, p.o.) during the last 4 weeks before culling (HFD + 4W 0.3 mg group); • Rabbits received a HFD for 12 weeks and were treated with GB1211 (1.0 mg/kg) for 5 days a week (days 1–5, p.o.) during the last 4 weeks before culling (HFD + 4W 1.0 mg group); • Rabbits received a HFD for 12 weeks and were treated with GB1211 (5.0 mg/kg) for 5 days a week (days 1–5, p.o.) during the last 4 weeks before culling (HFD + 4W 5.0 mg group).
# The oral glucose tolerance test (OGTT) was performed in accordance with the published method ([Filippi et al., 2009]). Briefly, after an overnight fast, a 50% glucose solution was orally administered to the animals at a dose of 1.5 g/kg. Blood samples were collected before and 15, 30, and 120 min after glucose loading. The incremental area under the curve (iAUC) was calculated by using GraphPad Prism (GraphPad Software, San Diego, CA). Blood samples for analyses were obtained from the marginal ear vein at week 8 or 12, in all groups. All blood samples were collected in standard conditions, before 10 a.m. after an overnight fasting. The blood was immediately centrifuged at 2,000 g for 20 min at 4°C and collected plasma/serum stored at −80°C until assayed. Plasma glucose, total cholesterol, triglycerides, transaminases (AST and ALT), and gamma-glutamyl transferase levels were measured using an automated system (Cobas 8000, Roche Diagnostics International AG, Rotkreuz, Switzerland). Serum alkaline phosphatase, albumin and total bilirubin levels were measured at IDEXX Laboratories (Kornwestheim, Germany), using an automated system (AU480, Beckman-Coulter, Brea, CA) with kinetic and photometric colour tests as per the following methods: alkaline phosphatase - alkaline buffer solution [2-amino-2-methylpropanol (AMP) in conjunction with p-nitrophenyl phosphate (pNPP)], according to the recommendation of the International Federation for Clinical Chemistry; albumin - the reaction of bromocresol green with albumin produces a colour complex, the absorption of which is measured dichromatically ([Doumas et al., 1971]); total bilirubin - a stabilized diazonium salt, 3,5-dichlorophenyldiazonium tetrafluoroborate (DPD), reacts with bilirubin to formazobilirubin, which absorbs at 570 nm ([Tolman and Rej, 1999]).
# Mean arterial blood pressure (MAP) was measured by using a polyethylene catheter inserted into a femoral artery at week 8 or 12, after ketamine (10 mg/kg i.v.) and sodium thiopental (50 mg/kg i.v.) sedation.
smiles,measurement,setting,value
OC[C@H]1O[C@H](Sc2cncc(Br)c2)[C@H](O)[C@@H](n2cc(-c3cc(F)c(F)c(F)c3)nn2)[C@H]1O [selvigaltin],ALP,0.3 mg/kg p.o. 5 days/week,69.43 ± 38.22 U/L
same,ALT,0.3 mg/kg p.o. 5 days/week,45.71 ± 22.51 U/L
same,AST,0.3 mg/kg p.o. 5 days/week,74.29 ± 51.50 U/L
same,Albumin,0.3 mg/kg p.o. 5 days/week,38.29 ± 4.42 g/L
same,Bilirubin,0.3 mg/kg p.o. 5 days/week,17.91 ± 13.00 µM
same,Glycaemia,0.3 mg/kg p.o. 5 days/week,1.21 ± 0.15 gr/L
same,Liver Weight,0.3 mg/kg p.o. 5 days/week,3.56 ± 0.28 % of BW
same,MAP,0.3 mg/kg p.o. 5 days/week,144.91 ± 16.18 mmHg
same,OGTT (iAUC),0.3 mg/kg p.o. 5 days/week,165.51 ± 20.71
same,Plasma Cholesterol,0.3 mg/kg p.o. 5 days/week,"2,277.43 ± 1,078.47 mg/dL"
same,Plasma Triglycerides,0.3 mg/kg p.o. 5 days/week,374.00 ± 619.70 mg/dL
same,Tissue Triglycerides,0.3 mg/kg p.o. 5 days/week,14.76 ± 2.26 nmol/mg Liver
same,VAT Weight,0.3 mg/kg p.o. 5 days/week,0.67 ± 0.21 % of BW
same,γGT,0.3 mg/kg p.o. 5 days/week,30.08 ± 22.90 U/L
same,ALP,1.0 mg/kg p.o. 5 days/week,72.86 ± 65.69 U/L
same,ALT,1.0 mg/kg p.o. 5 days/week,58.14 ± 27.72 U/L
same,AST,1.0 mg/kg p.o. 5 days/week,59.00 ± 37.48 U/L
same,Albumin,1.0 mg/kg p.o. 5 days/week,38.71 ± 2.63 g/L
same,Bilirubin,1.0 mg/kg p.o. 5 days/week,9.53 ± 3.73 µM
same,Glycaemia,1.0 mg/kg p.o. 5 days/week,1.90 ± 0.87 gr/L
same,Liver Weight,1.0 mg/kg p.o. 5 days/week,3.73 ± 0.32 % of BW
same,MAP,1.0 mg/kg p.o. 5 days/week,151.23 ± 26.21 mmHg
same,OGTT (iAUC),1.0 mg/kg p.o. 5 days/week,189.37 ± 22.39
same,Plasma Cholesterol,1.0 mg/kg p.o. 5 days/week,"2,182.86 ± 776.09 mg/dL"
same,Plasma Triglycerides,1.0 mg/kg p.o. 5 days/week,157.29 ± 68.66 mg/dL
same,Tissue Triglycerides,1.0 mg/kg p.o. 5 days/week,14.34 ± 1.35 nmol/mg Liver
same,VAT Weight,1.0 mg/kg p.o. 5 days/week,0.68 ± 0.24 % of BW
same,γGT,1.0 mg/kg p.o. 5 days/week,27.71 ± 14.16 U/L
same,ALP,5.0 mg/kg p.o. 5 days/week,49.57 ± 30.84 U/L
same,ALT,5.0 mg/kg p.o. 5 days/week,56.43 ± 20.02 U/L
same,AST,5.0 mg/kg p.o. 5 days/week,62.43 ± 15.80 U/L
same,Albumin,5.0 mg/kg p.o. 5 days/week,39.29 ± 5.94 g/L
same,Bilirubin,5.0 mg/kg p.o. 5 days/week,15.45 ± 9.05 µM
same,Glycaemia,5.0 mg/kg p.o. 5 days/week,1.43 ± 0.35 gr/L
same,Liver Weight,5.0 mg/kg p.o. 5 days/week,3.56 ± 0.16 % of BW
same,MAP,5.0 mg/kg p.o. 5 days/week,141.04 ± 30.52 mmHg
same,OGTT (iAUC),5.0 mg/kg p.o. 5 days/week,165.00 ± 2.65
same,Plasma Cholesterol,5.0 mg/kg p.o. 5 days/week,"1,546.43 ± 350.47 mg/dL"
same,Plasma Triglycerides,5.0 mg/kg p.o. 5 days/week,191.43 ± 234.40 mg/dL
same,Tissue Triglycerides,5.0 mg/kg p.o. 5 days/week,14.51 ± 1.49 nmol/mg Liver
same,VAT Weight,5.0 mg/kg p.o. 5 days/week,0.87 ± 0.32 % of BW
same,γGT,5.0 mg/kg p.o. 5 days/week,21.29 ± 13.11 U/L
